Assay results as given in article PMC5460289, “Identification of New Shikonin Derivatives as Antitumor Agents Targeting STAT3 SH2 Domain” (Scientific Reports, 2017).

What was measured:
[1] = MTT anti-proliferation assay, non-tumorigenic cells; format: cell-based; settings: human, non-tumorigenic MCF-10A cells, 24 h treatment
Procedure: Initial experiments were performed for evaluation of growth inhibition by the new compounds against six human breast cancer cell lines, including MCF-7 (ER+/PR+, HER-2-), BT474 (ER+/PR+, HER-2+), SKBR-3 (ER-/PR-/HER-2+), MDA-MB-436 (ER-/PR-/HER-2-), MDA-MB-231 (ER-/PR-/HER-2-), MDA-MB-468 (ER-/PR-/HER-2-) and non-tumorigenic MCF-10A cells. After 24 h treatment by the obtained compounds, the inhibition was assessed and the IC50 was summarized. […] Subsequently, the inhibition of STAT3 activation by PMM-172 and Stattic was evaluated using a dual-luciferase assay.
The anti-proliferative activities of the prepared compounds against MCF-7 (ER+/PR+, HER-2-), BT474 (ER+/PR+, HER-2+), SKBR-3 (ER-/PR-/HER-2+), MDA-MB-436 (ER-/PR-/HER-2-), MDA-MB-231 (ER-/PR-/HER-2-), MDA-MB-468 (ER-/PR-/HER-2-) and non-tumorigenic MCF-10A cell lines were evaluated using a standard (MTT)-based colorimetric assay with some modification. Cell lines were grown to log phase in DMEM supplemented with 10% fetal bovine serum. Cell suspensions were prepared and 100 μL/well dispensed into 96-well plates giving 10^4 cells/well. The subsequent incubation was permitted at 37 °C, 5% CO2 atmosphere for 24 h to allow the cells to reattach. Subsequently, cells were treated with the target compounds at increasing concentrations in the presence of 10% FBS for 24 h. Then, cell viability was assessed by the conventional 3-(4, 5-dimethylthiazol-2-yl)-2, 5-diphenyltetrazolium bromide (MTT) reduction assay and carried out strictly according to the manufacturer instructions. The absorbance (OD570) was read on an ELISA reader (Tecan, Austria). In all experiments, three replicate wells were used for each drug concentration. Each assay was carried out for at least three times.

[2] = tested on: STAT3-TATA-Luc reporter in MDA-MB-231 cells; assay: STAT3 dual-luciferase reporter assay; format: cell-based, human; settings: MDA-MB-231, 24 h treatment
Procedure: Figure 3 MDA-MB-231 cells were transfected with STAT3-TATA-Luc reporter and Renilla luciferase reporter plasmids. After 24 h, cells were treated with indicated concentrations of PMM-172 or Stattic for 24 h and then luciferase intensity was measured. Results are fold change ± SD of three independent experiments, *P < 0.05, **P < 0.01.
Cells were seeded in 24 well plates and transiently transfected together with STAT3 reporter plasmid 4 × M67 pTATA TK-Luc (0.2 μg/per well, Addgene, USA) and Renilla luciferase control reporter plasmid pRL-CMV (0.1 μg/per well, promega, USA), using lipofectamine 2000 (Invitrogen, USA). Then the cells were incubated with complete medium for 24 h with PMM-172 or Stattic. Following the treatment, the cells were harvested in 100 μL of passive lysis buffer (Promega, USA) in each well. A 25 μL aliquot of cell lysate was subjected to a luciferase assay by using the dual-luciferase assay kit (Promega, USA). STAT3 luciferase activity was measured by EnVision Mutilabel Reader (Perkin Elmer, USA). Relative luciferase activity was calculated after the activity of STAT3-dependent firefly luciferase had been normalized to that of Renilla luciferase. All values are expressed as - fold induction relative to basal activity.

[3] = tested on: PARP and caspase 3 cleavage in MDA-MB-231 cells; assay: Western blot of PARP and caspase 3 cleavage; format: cell-based, human; settings: MDA-MB-231, 24 h treatment
Procedure: To determine whether PMM-172 induced apoptosis, Annexin V/PI double staining assay was conducted. MDA-MB-231 cells were treated with various concentrations of PMM-172 for 24 h, and the percentage of apoptotic cells was markedly elevated in a dose-dependent manner. Likewise, MDA-MB-231 cells were treated with corresponding doses of Stattic. […] The percentages of cell apoptosis 3.12%, 8.12%, 16.81%, 62.74% corresponded to the concentration of PMM-172 0, 2, 4 and 8 μM, respectively, including both the early and the late apoptotic cells. Clearly, PMM-172 can cause cell apoptosis more effectively than Stattic. Moreover, an extend time-course apoptosis analysis of MDA-MB-231 cells treated with 4 μM PMM-172 was carry out. […] To further assess the pro-apoptotic effect of PMM-172, we evaluated the cleavage of poly (ADP-ribose) polymerase (PARP) and caspase 3 in MDA-MB-231 cells after 24 h treatment with PMM-172. […]
Figure 4 The effect of PMM-172 on the cell apoptosis of MDA-MB-231 cells. […] Apoptosis was analyzed by flow cytometry by using Annexin V/PI double staining. […] (E) PARP and caspase 3 cleavage in MDA-MB-231 cells after treated with various concentrations of PMM-172 for 24 h were detected by using Western blot analysis. The relative expression level was analyzed by Image J software. […]

SMILES: COc1cc(OC)cc(-c2nnc(SCC(=O)O[C@H](CC=C(C)C)C3=CC(=O)c4c(O)ccc(O)c4C3=O)o2)c1 [PMM-172, (R)-1-(5,8-dihydroxy-1,4-dioxo-1,4-dihydronaphthalen-2-yl)-4-methylpent-3-en-1-yl 2-((5-(3,5-dimethoxyphenyl)-1,3,4-oxadiazol-2-yl)thio)acetate]
- CC50 at 24 h [1]: 95.4 ± 0.62 µM
- STAT3 luciferase activity [2]: decreased the STAT3 luciferase activity in a dose-dependent manner
- PARP and caspase 3 cleavage [3]: could induce PARP and caspase 3 cleavage
